Measurements published in publication PMC4993479 (PLoS ONE, 2016).
Like-named read-outs stand apart in the source and are kept apart here.

Columns and labels:
[1] = In vitro skin diffusion across human epidermis in Franz-type diffusion cells; type: in vitro ADME
Description: Full thickness human skin samples from patients (26–48 years old females) undergoing abdominoplasty at Perth (WA, Australia) hospitals were refrigerated immediately after surgery. Sampling was approved by the Human Research Ethics Committee of Curtin University and was conducted in compliance with the guidelines of the National Health and Medical Research Council of Australia. Epidermal sheets were obtained and stored as previously described. […] Two hundred μL samples of the receptor phase were withdrawn and replaced with an equal volume of fresh pre-warmed (37°C) 25:75 PG:PBS over an 8 h period and the content analysed by HPLC. […] Permeability coefficients (cm/h) were calculated.

COX-2 = biological target: T1, COX-2 (Homo sapiens, UniProt P35354); test: COX Fluorescent Inhibitor Screening Assay (COX-2 inhibition); type: biochemical; conditions: concentration range 0.000155–0.31 mM, 2 min incubation
T1 construct: purchased Cayman Chemical 700100
T1 sequence (P35354 18-604): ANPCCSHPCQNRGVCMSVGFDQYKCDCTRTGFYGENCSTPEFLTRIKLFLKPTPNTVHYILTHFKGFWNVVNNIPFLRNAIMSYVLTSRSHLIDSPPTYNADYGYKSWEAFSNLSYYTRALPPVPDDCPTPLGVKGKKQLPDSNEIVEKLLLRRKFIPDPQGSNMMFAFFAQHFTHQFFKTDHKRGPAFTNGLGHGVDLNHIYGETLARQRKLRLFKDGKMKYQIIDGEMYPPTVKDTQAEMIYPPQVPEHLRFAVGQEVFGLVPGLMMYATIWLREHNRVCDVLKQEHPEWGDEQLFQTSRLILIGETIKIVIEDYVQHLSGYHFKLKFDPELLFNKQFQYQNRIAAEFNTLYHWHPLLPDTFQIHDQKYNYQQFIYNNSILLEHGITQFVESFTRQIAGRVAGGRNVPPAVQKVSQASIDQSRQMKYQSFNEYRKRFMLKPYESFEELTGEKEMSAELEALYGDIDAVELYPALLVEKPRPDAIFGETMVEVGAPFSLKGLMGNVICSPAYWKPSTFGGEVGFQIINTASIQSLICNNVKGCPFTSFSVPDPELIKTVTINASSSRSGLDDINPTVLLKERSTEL

[2] = Uptake/retention in the epidermis by solvent extraction and HPLC after the permeation experiment; conditions: human epidermis
Description: Briefly, the skin sections were placed in 500 μL methanol and vortexed for 2 min, then transferred to a second 500 μL methanol volume and vortexed for another 2 min. The skin sample was then placed in 1 mL propylene glycol for 1 h with agitation. After centrifuging each extract at 10,000 × g for 10 min, the resultant supernatants were diluted appropriately, quantified by HPLC, and the data combined to give total penetrant in the epidermal section.
Mass balance/recovery after the skin permeation experiments was determined by removing and retaining the donor solution, and washing the epidermal surface, donor and receptor compartments and retaining all washing solutions. The content of all solutions was analysed by HPLC following suitable dilution.

Row | Compound | Amount permeated (% of applied dose) [1] | Maximum amount permeated [1] | COX-2 inhibition (in words) (COX-2) | steady state flux ([1]; human epidermis, 300 μL containing 150 μg diclofenac alone or as conjugate in 25:75 PG:PBS, 8 h) [μg/cm^2/h] | Maximum amount permeated ([1]; human epidermis, applied dose 150 μg in 300 μL 25:75 PG:PBS, 8 h) | Amount permeated (% of applied dose) ([1]; human epidermis, applied dose 150 μg, 8 h) | Amount extracted from the skin (% of applied dose) ([2]; applied dose 150 μg) | Amount extracted (skin distribution) ([2]; applied dose 150 μg in 25:75 PG:PBS, after 8 h permeation experiment)
1 | DKP Phe-N-MeNal | 4.33 % of applied dose | 6.50(±1.94) μg/cm^2 | did not demonstrate COX-2 inhibition |  |  |  |  | 
2 | O=C(O)Cc1ccccc1Nc1c(Cl)cccc1Cl [Diclofenac, Diclofenac sodium] |  |  |  | 0.12 | 0.91(±0.15) μg/cm^2 | 0.60 % of applied dose | 5.72 % of applied dose | 8.58(±1.50) μg
3 | CN1C(=O)[C@H](Cc2ccc(NC(=O)Cc3ccccc3Nc3c(Cl)cccc3Cl)cc2)NC(=O)[C@@H]1Cc1ccc2ccccc2c1 [DKP-diclofenac conjugate, DKP Phe(Diclofenac)-N-MeNal] | 4.00 % of applied dose | 6.01(±0.16) μg/cm^2 |  |  |  |  |  | 
